Measured values as given in the NIST ThermoML archive (doi:10.1021/je400178k).
Numbers after ± are expanded uncertainties.

Experiment: molar heat capacity at constant pressure; xn = mol fraction of the nth substance listed
Conditions: 101 kPa, Liquid, Small sample (50 mg) DSC

NCCCN1CCOCC1 [N-(3-aminopropyl)morpholine] + O
molar heat capacity at constant pressure [J/K/mol]
Conditions	x1 = 0.0999	x1 = 0.2	x1 = 0.2921	x1 = 0.3916	x1 = 0.4896	x1 = 0.6011	x1 = 0.6947	x1 = 0.7952	x1 = 0.8939	x1 = 1
298.15 K	108.4 ± 2.5	136.2 ± 2.8	160.1 ± 3	183.1 ± 3.3	203.5 ± 3.5	224.3 ± 3.8	242.5 ± 4	261.6 ± 4.2	278.9 ± 4.4	296.2 ± 4.6
303.15 K	109.3 ± 2.5	137.2 ± 2.8	161.5 ± 3	184.9 ± 3.3	205.1 ± 3.5	226.3 ± 3.8	244.5 ± 4	263.6 ± 4.2	281 ± 4.4	298.2 ± 4.7
308.15 K	110.3 ± 2.5	138.2 ± 2.8	162.6 ± 3	186.4 ± 3.3	206.8 ± 3.5	227.8 ± 3.8	246.1 ± 4	265.1 ± 4.2	282.5 ± 4.5	299.6 ± 4.7
313.15 K	111.3 ± 2.5	139.5 ± 2.8	164 ± 3.1	188.1 ± 3.3	208.5 ± 3.6	229.5 ± 3.8	247.7 ± 4	266.7 ± 4.3	284 ± 4.5	301.2 ± 4.7
318.15 K	112.3 ± 2.6	140.9 ± 2.8	165.6 ± 3.1	189.9 ± 3.3	210.3 ± 3.6	231.2 ± 3.8	249.4 ± 4.1	268.4 ± 4.3	285.8 ± 4.5	302.8 ± 4.7
323.15 K	113.1 ± 2.6	142.3 ± 2.8	167.2 ± 3.1	191.3 ± 3.4	211.7 ± 3.6	232.9 ± 3.9	251.1 ± 4.1	270.1 ± 4.3	287.5 ± 4.5	304.5 ± 4.7
328.15 K	114 ± 2.6	143.7 ± 2.9	168.6 ± 3.1	192.9 ± 3.4	213.2 ± 3.6	234.4 ± 3.9	252.6 ± 4.1	271.6 ± 4.3	289.1 ± 4.6	306.1 ± 4.8
333.15 K	114.9 ± 2.6	145.3 ± 2.9	170.3 ± 3.1	194.5 ± 3.4	214.8 ± 3.6	236 ± 3.9	254.3 ± 4.1	273.4 ± 4.4	290.9 ± 4.6	307.9 ± 4.8
338.15 K	115.9 ± 2.6	146.8 ± 2.9	171.9 ± 3.1	196.2 ± 3.4	216.5 ± 3.7	237.7 ± 3.9	256 ± 4.1	275 ± 4.4	292.5 ± 4.6	309.6 ± 4.8
343.15 K	116.8 ± 2.6	148.2 ± 2.9	173.8 ± 3.2	197.6 ± 3.4	218.1 ± 3.7	239.5 ± 3.9	257.6 ± 4.2	276.5 ± 4.4	294.2 ± 4.6	311.3 ± 4.8
348.15 K	117.8 ± 2.6	149.7 ± 2.9	175.5 ± 3.2	199.3 ± 3.5	219.7 ± 3.7	240.9 ± 4	259.1 ± 4.2	277.9 ± 4.4	295.6 ± 4.6	312.7 ± 4.9
353.15 K	118.9 ± 2.6	151.1 ± 2.9	177.2 ± 3.2	201.6 ± 3.5	221.1 ± 3.7	242.1 ± 4	260.2 ± 4.2	278.7 ± 4.4	296.3 ± 4.6	313.4 ± 4.9
